Results taken from PubChem BioAssay AID1996.
≈ marks a conversion by molar mass, not a printed value.

Conditions: buffer; pH 7.4; 200.0 µM

solubility kinetic [µg/mL]	SMILES
1.9 (≈ 6.54 µM)	CCCN1C(=O)/C(=C/c2ccc3c(c2)OCO3)NC1=S
> 51.1	C/C(N)=C(/C#N)C(=O)COC(=O)C1=NN(c2ccccc2)C(=O)CC1
2.6 (≈ 6.98 µM)	CCCCNC(=O)C1CCC(CNc2nc(=S)[nH]c3ccccc23)CC1 (configuration not stated)
16 (≈ 36.5 µM)	Cc1ccc(NC(=O)C2CCN(S(=O)(=O)c3cc([N+](=O)[O-])ccc3Cl)CC2)nc1
35.2 (≈ 149 µM)	CCOC(=O)C1(C)Oc2cccnc2NC1=O (configuration not stated)
< 0.4	CCn1c(=O)c(C(=O)NCCCc2ccccc2)c(O)c2ccccc21
19.1 (≈ 51.2 µM)	O=S(=O)(Nc1cccc(CCc2ccccn2)c1)c1ccc(Cl)cc1
33.9 (≈ 139 µM)	C=Cn1ccnc1CC(O)c1ccc(OC)cc1 (configuration not stated)
6.4 (≈ 18.9 µM)	CCOC(=O)CCCCCN1C(=O)c2cccc3cccc(c23)C1=O
7.5 (≈ 17.5 µM)	COc1ccccc1N(C)S(=O)(=O)c1ccc(C(=O)Nc2cc(F)ccc2C)cc1
32.9 (≈ 122 µM)	Cc1cccc(N2C(=O)CC(n3ccnc3)C2=O)c1C (configuration not stated)
1.2 (≈ 3.41 µM)	CCc1cccc(NC(=O)C2CCCN2C(=O)Nc2ccc(C)cc2)c1 (configuration not stated)
36 (≈ 87.9 µM)	CCCC1(c2ccccc2)NC(=O)N(CC(=O)Nc2ccc3c(c2)OCCO3)C1=O (configuration not stated)
40.6 (≈ 104 µM)	CC(C)C(NC(=O)c1ccc(Cl)c([N+](=O)[O-])c1)C(=O)NCc1ccccn1 (configuration not stated)
> 32.7	Cc1ccc(C(=O)Nc2ncccc2O)o1
> 32	COC(=O)/C=C/c1cnc2ccccc2c1
30.8 (≈ 83.6 µM)	Cn1c(=O)n(CC(N)=O)c(=O)c2c1nc1n2CCCN1Cc1ccccc1
6.1 (≈ 21.3 µM)	COc1ccccc1-c1cc(C(=O)NC2CCCC2)no1
40.6 (≈ 125 µM)	O=C(NC(=S)NC1CCSC1=O)c1ccc([N+](=O)[O-])cc1 (configuration not stated)
27.2 (≈ 90.6 µM)	Cc1cc(C)c2oc(C(=O)N3CCN(C)CC3)cc(=O)c2c1
31.8 (≈ 102 µM)	O=C(OCC(=O)N1CCCC1)c1ccc(Cl)c([N+](=O)[O-])c1
4.2 (≈ 10.3 µM)	Cc1cccc(NC(=O)CSc2nc3ccccc3c(=O)n2CC2CCCO2)c1 (configuration not stated)
> 57.1	Cc1cccc(C)c1NC(=O)NC1(C(=O)NCc2ccncc2)CCCCC1

solubility kinetic [µg/mL]	SMILES
39.2 (≈ 110 µM)	Cc1ccc(NC(=S)N2CCC(NC(=O)c3ccco3)CC2)cc1C
> 47.3	CCOC(=O)C1=NNC2(CC(=O)N(c3cccc(C)c3)C2=O)C1 (configuration not stated)
16.1 (≈ 63.7 µM)	Cc1ccnc(NC(=O)c2ccc(Cl)s2)c1
39.6 (≈ 131 µM)	O=C(OCC(=O)N1CCCC1)c1c(Cl)cccc1Cl
36.1 (≈ 137 µM)	Cn1cccc1C(=O)NCCc1ccc(Cl)cc1
11.4 (≈ 38.6 µM)	CCOC(=O)c1ccc2c(c1)nc(-c1ccccn1)n2CC
0.9 (≈ 3.13 µM)	O=C(Nc1ccc(Cl)c(Cl)c1)N1CCCCCC1
> 48.7	Cc1ccccc1N(CC(=O)N1CCCCCC1)S(C)(=O)=O
8.5 (≈ 27.2 µM)	O=C(COC(=O)c1ccc2ccccc2n1)NC1CCCCC1
> 34.2	FC(F)(F)c1ccc(NC2=NCCC2)cc1
> 43.7	Cn1ccnc1SCC(=O)Nc1ccc2c(c1)OCO2
3.6 (≈ 13.5 µM)	COc1ccc(C(=O)COc2ccccc2C#N)cc1
1 (≈ 2.94 µM)	O=S(=O)(c1ccc(Cl)nc1)N1CCN(c2ncccn2)CC1
> 36.7	S=C(CN1CCCC1=S)N1CCOCC1
9 (≈ 29.7 µM)	O=C1NC(c2ccc(Br)cc2)Nc2ccccc21 (configuration not stated)
25.5 (≈ 82.4 µM)	Cc1ccc(C(=O)CN2CCN(c3ccccn3)CC2)c(C)c1
> 32.6	Cc1ccc(N2C(=O)CC(C)CC2=O)cc1
> 48.4	CC(C)CNC(=S)N1CCC(C(=O)c2ccc(F)cc2)CC1
39.6 (≈ 136 µM)	COC(=O)c1cccc(NC(=O)CC2NCCNC2=O)c1 (configuration not stated)
< 0.3	O=C(Nc1cccc([N+](=O)[O-])c1)C1C2/C=C\CCCCC21 (configuration not stated)
> 50.6	O=C(O)CC1c2ccccc2CCN1S(=O)(=O)c1cccs1 (configuration not stated)
3.9 (≈ 9.42 µM)	CCCn1c(N)c(C(=O)COc2ccc(Br)cc2F)c(=O)n(C)c1=O
> 49.1	NC(=O)c1cc[n+](Cc2ccccc2Cl)cc1.[Br-]

SMILES	solubility kinetic [µg/mL]
Cc1ccsc1CNCCc1ccc(F)cc1	27.1 (≈ 109 µM)
